What was measured:
[1] = target: T1, recombinant human COMT (Homo sapiens, UniProt P21964); assay: Human COMT inhibitory potency; assay type: biochemical; details: catechol substrate, [3H]-S-adenosyl-L-methionine, 37° C. 30 minutes
T1 construct: GST (N, cleaved yes); made in house; host or cells: E. coli BL21 (DE3) CODON PLUS RP
T1 sequence (P21964 with tags, fused parts or gaps): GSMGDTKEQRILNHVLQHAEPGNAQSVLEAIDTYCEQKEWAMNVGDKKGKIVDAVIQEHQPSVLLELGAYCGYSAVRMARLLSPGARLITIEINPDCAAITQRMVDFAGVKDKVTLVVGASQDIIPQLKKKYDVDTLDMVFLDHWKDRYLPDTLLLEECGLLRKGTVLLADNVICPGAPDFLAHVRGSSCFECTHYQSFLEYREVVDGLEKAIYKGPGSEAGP

[2] = tested on: rat cryopreserved hepatocytes; assay: Rat hepatocyte toxicities (cell viability, ATP activity); assay type: cell-based; details: concentration that shows 50% of the number of viable cells of control, 4 hours at 37° C.
[3] = tested on: unilateral 6-hydroxydopamine-lesioned hemi-Parkinsonian rats; assay: Potentiation of the efficacy of L-dopa, turning behavior; assay type: in vivo, Sprague-Dawley rats; details: 10 mg/kg oral with 5 mg/kg L-dopa and 30 mg/kg carbidopa; for Total counts: contralateral rotation counts; for Duration: duration of contralateral turning response
[4] = Evaluation of plasma L-dopa concentration; assay type: in vivo, Sprague-Dawley rats; details: percentage of control group, test compound 3 mg/kg oral, blood 2 hours later; for Plasma L-dopa (%) 4 hour: L-dopa 5 mg/kg and carbidopa 30 mg/kg oral 4 hours after; for Plasma L-dopa (%) 6 hour: L-dopa 5 mg/kg and carbidopa 30 mg/kg oral 6 hours after

Row | Structure (SMILES) | IC50 [1] | EC50 [2] | Total counts [3] | Duration [3] | Plasma L-dopa (%) 4 hour [4] | Plasma L-dopa (%) 6 hour [4]
1 | CCOCCc1nc(-c2cc(O)c(O)c([N+](=O)[O-])c2C(C)=O)no1 [Compound 1-37] | 0.0047 µM | – | – | – | – | –
2 | Cc1nc(-c2cc(O)c(O)c([N+](=O)[O-])c2C(=O)c2ccno2)no1 [Compound 1-24] | 0.0076 µM | > 1000 µM | – | – | – | –
3 | Cc1nc(-c2cc(O)c(O)c([N+](=O)[O-])c2C(=O)C(=O)N(C)C2CCCCC2)no1 [Compound 1-41] | 0.0047 µM | – | – | – | – | –
4 | CCOC(=O)c1c(-c2noc(C)n2)cc(O)c(O)c1[N+](=O)[O-] [Compound 1-14] | – | – | 1678.4 | 275.0 min | – | –
5 | Cc1noc(-c2cc(O)c(O)c([N+](=O)[O-])c2)n1 [Comparative example 1, 5-(3-methyl-[1,2,4]oxadiazol-5-yl)-3-nitro-benzene-1,2-diol, reference compound] | 0.0132 µM | 172 µM | – | – | 143.3 ± 13.3% | 106.9 ± 18.2%
6 | Cc1ccc(C(=O)c2cc(O)c(O)c([N+](=O)[O-])c2)cc1 [Tolcapone, 3,4-dihydroxy-4′-methyl-5-nitro-benzophenone, reference compound] | – | 34.3 µM | – | – | – | –
7 | Cc1nc(-c2cc(O)c(O)c([N+](=O)[O-])c2C(=O)c2ccccc2)no1 [Compound 1-1, [3,4-Dihydroxy-6-(5-methyl-[1,2,4]oxadiazol-3-yl)-2-nitro-phenyl]phenylmethanone] | 0.0094 µM | 683 µM | 2060.8 | 293.8 min | 182.9 ± 5.0% | 189.2 ± 32.8%
8 | Cc1nc(-c2cc(O)c(O)c([N+](=O)[O-])c2C(=O)C(=O)NC2CCCCC2)no1 [Compound 1-40] | 0.0088 µM | – | – | – | – | –
9 | COCc1nc(-c2cc(O)c(O)c([N+](=O)[O-])c2C(=O)OC)no1 [Compound 1-9] | 0.0077 µM | > 1000 µM | – | – | – | –
10 | Cc1nc(-c2cc(O)c(O)c([N+](=O)[O-])c2C(=O)c2ccccc2F)no1 [Compound 1-22] | 0.0083 µM | 523 µM | – | – | – | –
11 | COC(=O)c1c(-c2noc(C)n2)cc(O)c(O)c1[N+](=O)[O-] [Compound 1-5, methyl 3,4-dihydroxy-6-(5-methyl-[1,2,4]-oxadiazol-3-yl)-2-nitrobenzoate] | 0.0093 µM | > 1000 µM | 2051.9 | 321.3 min | – | –
12 | Cc1nc(-c2cc(O)c(O)c([N+](=O)[O-])c2C(=O)C2CCCCC2)no1 [Compound 1-20] | 0.0087 µM | – | – | – | – | –
13 | CC(=O)c1c(-c2noc(C)n2)cc(O)c(O)c1[N+](=O)[O-] [Compound 1-2] | – | 645 µM | 2103.0 | 312.5 min | – | –
14 | Cc1nc(-c2cc(O)c(O)c([N+](=O)[O-])c2C(=O)C(C)C)no1 [Compound 1-3, 1-[3,4-dihydroxy-6-(5-methyl-[1,2,4]-oxadiazol-3-yl)-2-nitrophenyl]-2-methylpropane-1-one] | 0.0081 µM | 698 µM | – | – | – | –
